# Experimental data taken from paper PMC10413441 (Chembiochem : a European journal of chemical biology, 2023).
# Tests used:
# [1] = test system: YAP1 phosphorylation at S127; experiment: immunoblot analysis of Hippo signaling in CUTO9 cells; format: cell-based, human; details: 2 hours, brigatinib, lorlatinib 3 μM each, MRT67307 1 μM
# CUTO9 cells = experiment: wound-healing assay in CUTO9 cells; format: cell-based, human; details: for suppression of cell migration (wound closure) / impact on wound closure: 24 hours; for inhibition at 1 µM: Homo sapiens, 24 h, read-out: inhibition of wound closure
# MARK2/3 = experiment: immunoblotting of cross-competition pulldowns; format: binding, human; details: CUTO9 cells pre-treated with 2.5 μM TKI for 24 hours, immunoblot
# A549 NSCLC cells = experiment: wound-healing assay in A549 cells; details: for wound closure inhibition: A549 cells (no EML4-ALK, mutant KRAS), 48 hours
# [2] = cited from earlier work
# MARK3 = details: read-out: previously reported in vitro IC50; cited from earlier work
# MARK2 = details: read-out: reported in vitro IC50; cited from earlier work
Compound,phosphorylation of YAP1 at S127 [1],competition for binding of MARK2/3 to i-brigatinib beads (MARK2/3),wound closure inhibition (A549 NSCLC cells),"suppression of cell migration (wound closure) (CUTO9 cells; CUTO9 cells, 3 μM)",inhibition at 1 µM (CUTO9 cells) [%],impact on wound closure (CUTO9 cells; CUTO9 cells),also measured
O=C(NCCCNc1nc(Nc2cccc(CN3CCOCC3)c2)ncc1C1CC1)C1CCC1 [MRT67307],induced phosphorylation of YAP1 at S127,,,,,,"reduction of cell migration (CUTO9 cells; CUTO9 cells, 1 μM): approximately 25%; reduction of cell migration (CUTO9 cells; CUTO9 cells, 3 μM): ~40%"
CCc1cc2c(cc1N1CCC(N3CCOCC3)CC1)C(C)(C)c1[nH]c3cc(C#N)ccc3c1C2=O [alectinib],,more completely competed,wound closure inhibition observed,~45%,~30,,
COc1cc(N2CCC(N3CCN(C)CC3)CC2)ccc1Nc1ncc(Cl)c(Nc2ccccc2P(C)(C)=O)n1 [brigatinib],induced phosphorylation of YAP1 at S127,more completely competed,wound closure inhibition observed,approximately 70%,~40,,"reported clinically relevant concentration ([2]; clinical): 2.9 µM; Cmax ([2]; read-out: plasma Cmax, reported, no reference given): 2500 nM; competition for EML4-ALK (EML4-ALK): strongest extent of competition; IC50 (MARK3): 0.127 µM; IC50 (MARK2): 0.093 µM"
C[C@@H](Oc1cc(-c2cnn(C3CCNCC3)c2)cnc1N)c1c(Cl)ccc(F)c1Cl [crizotinib],,,,,,no impact on wound closure,
CNC(=O)c1ccc(Nc2ncc(C(F)(F)F)c(NCc3nccnc3N(C)S(C)(=O)=O)n2)cc1 [defactinib],,,,,,,"effects on migration (A549 NSCLC cells; A549 cells): minor, but notable effects; effects on migration (CUTO9 cells; CUTO9 cells): minor, but notable effects"
C[C@H]1Oc2cc(cnc2N)-c2c(nn(C)c2C#N)CN(C)C(=O)c2ccc(F)cc21 [lorlatinib],not observed,,,,,no impact on wound closure,
